Test results as given in PMC5322882, “Alterations in cellular pharmacokinetics and pharmacodynamics of elvitegravir in response to ethanol exposure in HIV-1 infected monocytic (U1) cells” (PLoS ONE, 2017).

Assays:
HIV-1 replication = test: HIV p24 ELISA in culture medium of U1 cells (HIV replication); format: cell-based; details: 24 hours; for effect on HIV p24 levels compared to control (in words): Fig 5; for HIV p24 level in culture media, mean (Fig 5): percentage of vehicle control, MK-571 50 μM, PSC-833 5 μM; for HIV p24 level in culture media, mean (Fig 2): percentage of vehicle control (100%), EVG 5 μM, COBI 2 μM, ethanol 20 mM
Protocol: (§1) HIV-infected U937 cell line—the U1 cells were obtained through the NIH AIDS Reagent Program (Germantown, MD). U1 cells were cultured in Roswell Park Memorial Institute (RPMI) 1640 media (Corning Inc, Tewksbury, MA) supplemented with 10% fetal bovine serum (Atlanta biologicals, Atlanta, GA), 1% L-glutamine, nonessential amino acid solution, sodium bicarbonate, and penicillin-streptomycin solution. Cells were plated at 0.9x10^6 cells/well of 6-well plates and were differentiated into macrophages with 100 nM Phorbol 12-myristate 13-acetate (PMA) for 72 hours prior to treatment. On the day of experiment, medium was removed and cells were washed twice with PBS and treated with media containing clinically relevant concentrations of (a) EVG (5 μM), (b) EVG+COBI (2 μM), (c) EVG+ethanol (20 mM), (d) EVG+COBI+ethanol. Ethanol-treated plates were placed in an incubator that humidified with 20 mM ethanol to prevent any loss of ethanol due to evaporation.
(§2) At predetermined time points (0.5, 1, 3, 6, 12, and 24 hours), cells were collected for concentration-time profile experiments and medium was collected for HIV p24 measurement. At each time point, cells were washed twice with PBS and incubated with 400 μL of cold Radioimmunoprecipitation assay (RIPA) buffer for 10 minutes and the cell lysates were collected.
Influence of the combination of drugs on HIV replication was determined by measurement of HIV p24 levels in the cell culture medium. […] The concentration of p24 in the samples was quantitated by comparing with standards’ absorbance values and reported in percentage of control. The vehicle-treated samples were used as control and set as 100%.

CYP3A4 = test: In-Cell Western analysis of CYP3A4 protein expression in U1 cells; format: cell-based; details: 24 hours; for change in CYP3A4 expression compared to control (in words): U1 cells; for CYP3A4 fluorescence signal intensity, mean (Fig 3A): relative response compared to vehicle controls, normalized to β-actin
Protocol: (§3) Detecting low levels of protein expression in native cells using traditional Western blotting can be difficult and therefore some studies successfully used In-Cell Western blotting (ICW) to quantify minor alterations in protein expression. We used manufacturer recommended (LI-COR Biosciences, NE) protocol in this study to perform ICW. U1 cells (0.03x10^6) were plated in sterile 96-well plates and differentiated with 100 nM PMA for 72 hours at 37°C in a humidified incubator while maintaining 5% CO2 air flow. On the day of treatment, each well was flushed with sterile PBS (250 μl) followed by addition of a 250 μl RPMI media containing various combinations of drugs previously mentioned. These plates were incubated for 24 hours prior to fixation. Medium from each well was removed by careful aspiration and cells were immediately fixed by addition of cold (-20°C) methanol (200 μl) followed by incubation of the plate at ambient temperature for 10 minutes with gentle shaking. Following incubation, methanol was carefully removed and wells were gently rinsed thrice with PBS (200 μl). After the last rinse, blocking was done by adding a 150 μl of Li-Cor blocking buffer and incubating the plate at room temperature with gentle shaking for 1.5 hours. Meanwhile, the primary antibodies were diluted in Li-Cor Odyssey blocking buffer using following dilutions: 3A4 (Rabbit Pab, Abcam # ab3572) 1: 200; MRP1 (mouse mab, Millipore # MAB4100) 1:50; MDR1(mouse mab, Millipore # MAB4334) 1:50; β-Actin (Mouse mAb Cell Signaling # 3700) 1:2000; β-Actin (Rabbit mAb Cell Signaling # 4970) 1:200. After blocking, 50 μl of desired antibody added to test wells and incubated overnight at 4°C with gentle shaking. On the following day, wells were washed five times with 200 μl PBS containing Tween-20 (0.1%) for 5 minutes at room temperature with gentle shaking. Secondary antibodies, goat anti-Mouse Mab (Li-Cor # 926–68170) and goat anti-Rabbit Mab (Li-Cor # 827–08365) were diluted in 1:1000 ratio in blocking buffer (0.2% -Tween-20, 0.01% SDS). After the final wash, wells were incubated with 50 μl of secondary antibody mixture for 1 hour in the dark at room temperature. After five washes, plates were scanned using Li-Cor Odyssey® SA and analyzed by using Image Studio V4.0 software (LI-COR Biosciences, NE). Background was subtracted from control wells and target protein signal intensities from triplicate wells were normalized to their respective β-actin intensities. Signal intensities were expressed as percent of relative responses (mean ± standard errors of mean) compared to vehicle controls.

U1 cells [1] = test: Intracellular elvitegravir concentration-time profile (cellular pharmacokinetics) in U1 cells, LC-MS/MS; format: in vitro ADME; details: for cellular EVG concentration, mean: U1 cells
Protocol: as §1, §2
(§4) A previously reported LC-MS/MS method was used to quantitate EVG in cell lysates, culture medium, and plasma samples used in this study. Calibrants (0.003, 0.006, 0.013, 0.025, 0.05, 0.1, 0.15, 0.25, 0.5, and 1 μM) were prepared by serial dilution approach with the corresponding working solutions. EVG extraction from the calibrants and study samples was performed by adding 3-volumes of cold acetonitrile which contained a 138 nM ritonavir (RTV) as internal standard (IS). All samples were centrifuged at 8000 rpm for 10 minutes at 4°C and clear supernatants were transferred into vails with low-volume inserts for LC-MS/MS analysis. Samples (5 μL) were injected onto a Waters Xterra® MS C18 Column (125Å, 3.5 μ, 4.6 X 50 mm) (Waters Corporation, Milford, MA) attached to a Shimadzu Nexera HPLC system coupled with a tandem mass spectrometer (Triple Quad 5500 from AB SCIEX, Framingham, MA) with electron spray ionization in positive mode. Data was acquired and analyzed with the Analyst software package (ver.1.6.2, AB SCIEX, Framingham, MA). Concentrations were quantified by the Quantitative Analysis module (Analyst ver 1.6.2, AB SCIEX, Framingham, MA) from a standard curve fitted with a linear-regression model with a weighting factor of 1/x^2.
(§5) The concentration-time profiles were analyzed by non-compartmental modeling using Phoenix WinNonlin 6.4 (Certara L.P., Princeton, NJ). Area under the curve (AUCtot) was calculated by the log trapezoidal rule by log-linear regression. The maximum concentration achieved (Cmax) and the time to maximum concentration (Tmax) were determined from the concentration-time profiles. Effect of ethanol on EVG AUCtot and Cmax were compared using unpaired t test with Welch's correction. Tmax values were compared using Wilcoxon rank-sum test. All other data involving more than two groups were compared by one way ANOVA and multiple comparisons were performed by Tukey’s post hoc test. ANOVA data was presented along with multiplicity adjusted p values for each comparison. All the statistical analyses were done by Prism 6 (GraphPad Software, La Jolla, CA). A p-value ≤ 0.05 among treatment groups was considered significant.

[2] = as above; format: in vitro ADME; details: human, intracellular EVG in U1 cells
Protocol: as §1, §2, §4, §5

MDR1 = test: In-Cell Western analysis of MDR1 protein expression in U1 cells; format: cell-based; details: 24 hours; for change in MDR1 expression compared to control (in words): U1 cells; for MDR1 fluorescence signal intensity, mean (Fig 3C): relative response compared to vehicle controls, normalized to β-actin
Protocol: as §3

MRP1 = test: In-Cell Western analysis of MRP1 protein expression in U1 cells; format: cell-based; details: 24 hours; for change in MRP1 expression compared to control (in words): U1 cells; for MRP1 fluorescence signal intensity, mean (Fig 3B): relative response compared to vehicle controls, normalized to β-actin
Protocol: as §3

[3] = design: method as in PMID 10817729; details: ethanol 0.7 g/kg with 600 mg of abacavir, 25 male HIV-infected individuals; cited from earlier work
U1 cells [4] = test: Intracellular elvitegravir concentration in the presence of MRP1 or MDR1 inhibitors and cobicistat + ethanol; format: in vitro ADME; details: cells co-treated with EVG+COBI+ethanol (control), 24 hours
Protocol: as §2

CN(C)C(=O)CCSC(SCCC(=O)O)c1cccc(/C=C/c2ccc3ccc(Cl)cc3n2)c1 (centres unmarked) [MK-571]
effect on HIV p24 levels compared to control (in words) (HIV-1 replication; U1 cells): did not show any effect
HIV p24 level in culture media, mean (Fig 5) (HIV-1 replication): 104.1%

COc1cc2c(cc1Cc1cccc(Cl)c1F)c(=O)c(C(=O)O)cn2[C@H](CO)C(C)C [EVG, elvitegravir]
change in CYP3A4 expression compared to control (in words) (CYP3A4): no change
CYP3A4 fluorescence signal intensity, mean (Fig 3A) (CYP3A4): 104.7%
cellular EVG concentration, mean (U1 cells [1]; 0.5 hours): 41.39 μM/mg of protein
cellular EVG concentration, mean (U1 cells [1]; 1 hour): 51.13 μM/mg of protein
cellular EVG concentration, mean (U1 cells [1]; 3 hours): 59.00 μM/mg of protein
cellular EVG concentration, mean (U1 cells [1]; 6 hours): 66.27 μM/mg of protein
cellular EVG concentration, mean (U1 cells [1]; 12 hours): 78.01 μM/mg of protein
cellular EVG concentration, mean (U1 cells [1]; 24 hours): 72.02 μM/mg of protein
AUCtot (U1 cells [1]; intracellular EVG in PMA-differentiated U1 cells, 0 to 24 hours, EVG 5 μM, COBI 2 μM, ethanol 20 mM, mean ± SEM): 1733 ± 122 μMXh/mg
mean exposure (AUCtot) (U1 cells [1]; intracellular EVG in U1 cells): 1733 ± 122 µM·h/mg
Cmax at 5 μM ([2]; EVG 5 μM, COBI 2 μM, ethanol 20 mM, mean ± SEM): 82 ± 4 µM
Tmax at 5 μM ([2]; median (range)): 12 h
reduction of HIV p24 levels (HIV-1 replication; U1 cells, compared to vehicle): 30%
HIV p24 level in culture media, mean (Fig 2) (HIV-1 replication): 70.3%
change in MDR1 expression compared to control (in words) (MDR1): no influence
MDR1 fluorescence signal intensity, mean (Fig 3C) (MDR1): 91.21%
change in MRP1 expression compared to control (in words) (MRP1): no effect
MRP1 fluorescence signal intensity, mean (Fig 3B) (MRP1): 100%

CCO [EtOH, ethanol]
change in CYP3A4 expression compared to control (in words) (CYP3A4): significant induction
CYP3A4 fluorescence signal intensity, mean (Fig 3A) (CYP3A4): 167.5%
increase in HIV p24 levels compared to vehicle control (HIV-1 replication; U1 cells): 35%
HIV p24 level in culture media, mean (Fig 2) (HIV-1 replication): 135.4%
HIV p24 level in culture media, mean (Fig 5) (HIV-1 replication): 135.4%
change in MDR1 expression compared to control (in words) (MDR1): significant induction
MDR1 fluorescence signal intensity, mean (Fig 3C) (MDR1): 128%
change in MRP1 expression compared to control (in words) (MRP1): upregulated
MRP1 fluorescence signal intensity, mean (Fig 3B) (MRP1): 167.2%

Nc1nc(NC2CC2)c2ncn([C@H]3C=C[C@@H](CO)C3)c2n1 [abacavir]
increase in half-life with ethanol consumption [3]: 26%
increase in maximum concentration with ethanol consumption [3]: 15%
increase in total exposure with ethanol consumption [3]: 41%

C/C=C/C[C@@H](C)C(=O)[C@H]1C(=O)N[C@@H](C(C)C)C(=O)N(C)CC(=O)N(C)[C@@H](CC(C)C)C(=O)N[C@@H](C(C)C)C(=O)N(C)[C@@H](CC(C)C)C(=O)N[C@@H](C)C(=O)N[C@H](C)C(=O)N(C)[C@@H](CC(C)C)C(=O)N(C)[C@@H](CC(C)C)C(=O)N(C)[C@@H](C(C)C)C(=O)N1C [PSC-833]
effect on HIV p24 levels compared to control (in words) (HIV-1 replication; U1 cells): did not show any effect
HIV p24 level in culture media, mean (Fig 5) (HIV-1 replication): 98.57%
effect on intracellular EVG concentration (in words) (U1 cells [4]): no significant effect
